Positions of bridges follow the written chain, without caps; N, C: chain ends. Non-standard residues stand in square brackets, D forms with d. Chains are numbered I, II in the order given. No end group written: not given here.
Assays:
CXCR4 H203A = target: T1, CXCR4 H203A (Homo sapiens, UniProt P61073, H203A); test: Competitive binding to CXCR4 mutant H203A (12G5, CHO cells); details: TM5, class of reduction vs wild-type CXCR4, 12G5 competition, averages of at least three independent experiments
T1 construct: expressed in transfected cells
Method: (§1) Plasmid pcDNA3-CXCR4 and mutated pcDNA3-CXCR4 were extracted and transfected into CHO cells using Lipofectamine 2000 according to the manufacturer’s guidelines. The selective medium containing G418 at a concentration of 1.2 mg/ml was applied to isolate stably transfected cells. CHO cells expressing wild-type CXCR4 and mutant CXCR4 were obtained using fluorescence-activated cell sorting (FACS).
(§2) All of the CXCR4 mutants were prepared using PCR technology. Briefly, pairs of asymmetrical primers containing the desired amino acid mutations (Supplementary Tables S1 and S2), each complementary to opposite strands of the pcDNA3–CXCR4, were designed for amplification by Q5® High-Fidelity DNA polymerase and the generation of mutated constructs. The methylated pcDNA3–CXCR4 templates were digested by DpnI. The mutated pcDNA3–CXCR4 was transformed into competent E. coli TOP10 for long-term storage and amplification.
(§3) The procedure for the CXCR4 competitive binding experiments was published previously. Briefly, CXCR4 antibody 12G5 (250 ng/ml) was incubated with 5 × 10^5 cells and varying concentrations of unlabeled compounds in a final volume of 100 μl of assay buffer (PBS with 0.5% BSA and 0.05% NaN3) in 96-well plates for 40 min on ice, after being washed with assay buffer once. The cells were incubated with FITC-conjugated second antibody IgG for 30 min on ice, then washed with assay buffer three times. The fluorescence intensity was measured for excitation at 485 nm and emission at 535 nm using multimode plate reader (PerkinElmer). The IC50 values were calculated using graphpad Prism 7. Experiments were performed at least three times.

CXCR4 Y116A = target: T2, CXCR4 Y116A (Homo sapiens, UniProt P61073, Y116A); test: Competitive binding to CXCR4 mutant Y116A (12G5, CHO cells); details: TM3, class of reduction vs wild-type CXCR4, 12G5 competition, averages of at least three independent experiments
T2 construct: expressed in transfected cells
Method: as §1, §2, §3

CXCR4 W252A = target: T3, CXCR4 W252A (Homo sapiens, UniProt P61073, W252A); test: Competitive binding to CXCR4 mutant W252A (12G5, CHO cells); details: TM6, class of reduction vs wild-type CXCR4, 12G5 competition, averages of at least three independent experiments
T3 construct: expressed in transfected cells
Method: as §1, §2, §3

CXCR4 D97A = target: T4, CXCR4 D97A (Homo sapiens, UniProt P61073, D97A); test: Competitive binding to CXCR4 mutant D97A (12G5, CHO cells); details: TM2, class of reduction vs wild-type CXCR4, 12G5 competition, averages of at least three independent experiments
T4 construct: expressed in transfected cells
Method: as §1, §2, §3

CXCR4 E288Q = target: T5, CXCR4 E288Q (Homo sapiens, UniProt P61073, E288Q); test: Competitive binding to CXCR4 mutant E288Q (12G5, CHO cells); details: TM7, class of reduction vs wild-type CXCR4, 12G5 competition, averages of at least three independent experiments
T5 construct: expressed in transfected cells
Method: as §1, §2, §3

CXCR4 D171A = target: T6, CXCR4 D171A (Homo sapiens, UniProt P61073, D171A); test: Competitive binding to CXCR4 mutant D171A (12G5, CHO cells); details: TM4, class of reduction vs wild-type CXCR4, 12G5 competition, averages of at least three independent experiments
T6 construct: expressed in transfected cells
Method: as §1, §2, §3

CXCR4 H113A = target: T7, CXCR4 H113A (Homo sapiens, UniProt P61073, H113A); test: Competitive binding to CXCR4 mutant H113A (12G5, CHO cells); details: TM3, class of reduction vs wild-type CXCR4, 12G5 competition, averages of at least three independent experiments
T7 construct: expressed in transfected cells
Method: as §1, §2, §3

CXCR4 T117A = target: T8, CXCR4 T117A (Homo sapiens, UniProt P61073, T117A); test: Competitive binding to CXCR4 mutant T117A (12G5, CHO cells); details: TM3, class of reduction vs wild-type CXCR4, 12G5 competition, averages of at least three independent experiments
T8 construct: expressed in transfected cells
Method: as §1, §2, §3

CXCR4 D262N = target: T9, CXCR4 D262N (Homo sapiens, UniProt P61073, D262N); test: Competitive binding to CXCR4 mutant D262N (12G5, CHO cells); details: TM6, class of reduction vs wild-type CXCR4, 12G5 competition, averages of at least three independent experiments
T9 construct: expressed in transfected cells
Method: as §1, §2, §3

CXCR4 Q200A = target: T10, CXCR4 Q200A (Homo sapiens, UniProt P61073, Q200A); test: Competitive binding to CXCR4 mutant Q200A (12G5, CHO cells); set-up: key to the marks not given beside the values; details: TM5, class of reduction vs wild-type CXCR4, 12G5 competition, averages of at least three independent experiments
T10 construct: expressed in transfected cells
Method: as §1, §2, §3

CXCR4 E288A = target: T11, CXCR4 E288A (Homo sapiens, UniProt P61073, E288A); test: Competitive binding to CXCR4 mutant E288A (12G5, CHO cells); details: TM7, class of reduction vs wild-type CXCR4, 12G5 competition, averages of at least three independent experiments
T11 construct: expressed in transfected cells
Method: as §1, §2, §3

CXCR4 E288D = target: T12, CXCR4 E288D (Homo sapiens, UniProt P61073, E288D); test: Competitive binding to CXCR4 mutant E288D (12G5, CHO cells); details: TM7, class of reduction vs wild-type CXCR4, 12G5 competition, averages of at least three independent experiments
T12 construct: expressed in transfected cells
Method: as §1, §2, §3

CXCR4 H281A = target: T13, CXCR4 H281A (Homo sapiens, UniProt P61073, H281A); test: Competitive binding to CXCR4 mutant H281A (12G5, CHO cells); details: TM7, class of reduction vs wild-type CXCR4, 12G5 competition, averages of at least three independent experiments
T13 construct: expressed in transfected cells
Method: as §1, §2, §3

CXCR4 I259A = target: T14, CXCR4 I259A (Homo sapiens, UniProt P61073, I259A); test: Competitive binding to CXCR4 mutant I259A (12G5, CHO cells); set-up: key to the marks not given beside the values; details: TM6, class of reduction vs wild-type CXCR4, 12G5 competition, averages of at least three independent experiments
T14 construct: expressed in transfected cells
Method: as §1, §2, §3

CXCR4 I284A = target: T15, CXCR4 I284A (Homo sapiens, UniProt P61073, I284A); test: Competitive binding to CXCR4 mutant I284A (12G5, CHO cells); details: TM7, class of reduction vs wild-type CXCR4, 12G5 competition, averages of at least three independent experiments
T15 construct: expressed in transfected cells
Method: as §1, §2, §3

CXCR4 W94A = target: T16, CXCR4 W94A (Homo sapiens, UniProt P61073, W94A); test: Competitive binding to CXCR4 mutant W94A (12G5, CHO cells); details: TM2, class of reduction vs wild-type CXCR4, 12G5 competition, averages of at least three independent experiments
T16 construct: expressed in transfected cells
Method: as §1, §2, §3

CXCR4 N119A = target: T17, CXCR4 N119A (Homo sapiens, UniProt P61073, N119A); test: Competitive binding to CXCR4 mutant N119A (12G5, CHO cells); details: TM3, class of reduction vs wild-type CXCR4, 12G5 competition, averages of at least three independent experiments
T17 construct: expressed in transfected cells
Method: as §1, §2, §3

CXCR4 F87A = target: T18, CXCR4 F87A (Homo sapiens, UniProt P61073, F87A); test: Competitive binding to CXCR4 mutant F87A (12G5, CHO cells); details: TM2, class of reduction vs wild-type CXCR4, 12G5 competition, averages of at least three independent experiments
T18 construct: expressed in transfected cells
Method: as §1, §2, §3

CXCR4 = details: read-out: IC50; cited from earlier work
Text: To understand the receptor–ligand recognition mechanism involving CXCR4 and its antagonists, here in this study we conducted a series of comparative analyses of the biological activities and CXCR4 binding sites of eleven known CXCR4 antagonists, including the three mentioned above, using cell-based bioassays, CXCR4 site-directed mutagenesis and computer-aided molecular modeling. These antagonists studied here were chosen from different representative structural types including both D-peptides (i.e., HC4319, DV1, DV1 dimer, and DV3) and a representative counterpart L-peptide (i.e., V1) derived ...

T18 sequence (P61073 whole entry F87A): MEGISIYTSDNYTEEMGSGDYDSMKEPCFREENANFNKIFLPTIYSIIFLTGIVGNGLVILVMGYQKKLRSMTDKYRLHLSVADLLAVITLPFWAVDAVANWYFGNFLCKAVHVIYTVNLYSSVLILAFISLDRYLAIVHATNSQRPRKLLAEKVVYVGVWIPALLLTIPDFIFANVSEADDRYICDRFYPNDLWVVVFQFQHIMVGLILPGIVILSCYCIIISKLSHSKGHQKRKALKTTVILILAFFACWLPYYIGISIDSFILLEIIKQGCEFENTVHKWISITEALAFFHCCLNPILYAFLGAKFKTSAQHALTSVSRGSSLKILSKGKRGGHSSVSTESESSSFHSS
T17 sequence (P61073 whole entry N119A): as the sequence (P61073 whole entry F87A) above, with A87F, N119A counted along it
T16 sequence (P61073 whole entry W94A): as the sequence (P61073 whole entry F87A) above, with A87F, W94A counted along it
T15 sequence (P61073 whole entry I284A): as the sequence (P61073 whole entry F87A) above, with A87F, I284A counted along it
T2 sequence (P61073 whole entry Y116A): as the sequence (P61073 whole entry F87A) above, with A87F, Y116A counted along it
T8 sequence (P61073 whole entry T117A): as the sequence (P61073 whole entry F87A) above, with A87F, T117A counted along it
T11 sequence (P61073 whole entry E288A): as the sequence (P61073 whole entry F87A) above, with A87F, E288A counted along it
T10 sequence (P61073 whole entry Q200A): as the sequence (P61073 whole entry F87A) above, with A87F, Q200A counted along it
T5 sequence (P61073 whole entry E288Q): as the sequence (P61073 whole entry F87A) above, with A87F, E288Q counted along it
T6 sequence (P61073 whole entry D171A): as the sequence (P61073 whole entry F87A) above, with A87F, D171A counted along it
T7 sequence (P61073 whole entry H113A): as the sequence (P61073 whole entry F87A) above, with A87F, H113A counted along it
T4 sequence (P61073 whole entry D97A): as the sequence (P61073 whole entry F87A) above, with A87F, D97A counted along it
T9 sequence (P61073 whole entry D262N): as the sequence (P61073 whole entry F87A) above, with A87F, D262N counted along it
T13 sequence (P61073 whole entry H281A): as the sequence (P61073 whole entry F87A) above, with A87F, H281A counted along it
T1 sequence (P61073 whole entry H203A): as the sequence (P61073 whole entry F87A) above, with A87F, H203A counted along it
T14 sequence (P61073 whole entry I259A): as the sequence (P61073 whole entry F87A) above, with A87F, I259A counted along it
T12 sequence (P61073 whole entry E288D): as the sequence (P61073 whole entry F87A) above, with A87F, E288D counted along it
T3 sequence (P61073 whole entry W252A): as the sequence (P61073 whole entry F87A) above, with A87F, W252A counted along it

For “I: [dL]G[dA][dS][dW][dH][dR][dP][dD][dK][dC][dC][dL]G[dY][dQ][dK][dR][dP][dL][dP] / II: [dL]G[dA][dS][dW][dH][dR][dP][dD][dK][dC][dC][dL]G[dY][dQ][dK][dR][dP][dL][dP] (disulfide I:11-II:11, I:12-II:12) [DV1 dimer]”, the “Competitive receptor binding activity, CXCR4 H203A” value (CXCR4 H203A) was “++ (10–29% reduction compared with wild-type CXCR4)”, the “Competitive receptor binding activity, CXCR4 Y116A” value (CXCR4 Y116A) was “+ (30–60% reduction compared with wild-type CXCR4)” and the “Competitive receptor binding activity, CXCR4 W252A” value (CXCR4 W252A) was “+++”. The “Competitive receptor binding activity, CXCR4 D97A” value (CXCR4 D97A) was “++ (10–29% reduction compared with wild-type CXCR4)”, the “Competitive receptor binding activity, CXCR4 E288Q” value (CXCR4 E288Q) was “+ (30–60% reduction compared with wild-type CXCR4)” and the “Competitive receptor binding activity, CXCR4 D171A” value (CXCR4 D171A) was “++ (10–29% reduction compared with wild-type CXCR4)”. The “Competitive receptor binding activity, CXCR4 H113A” value (CXCR4 H113A) was “+ (30–60% reduction compared with wild-type CXCR4)”, the “Competitive receptor binding activity, CXCR4 T117A” value (CXCR4 T117A) was “++ (10–29% reduction compared with wild-type CXCR4)” and the “Competitive receptor binding activity, CXCR4 D262N” value (CXCR4 D262N) was “+ (30–60% reduction compared with wild-type CXCR4)”. For the same substance, the “Competitive receptor binding activity, CXCR4 Q200A” value (CXCR4 Q200A) was “+++”, the “Competitive receptor binding activity, CXCR4 E288A” value (CXCR4 E288A) was “+ (30–60% reduction compared with wild-type CXCR4)” and the “Competitive receptor binding activity, CXCR4 E288D” value (CXCR4 E288D) was “++ (10–29% reduction compared with wild-type CXCR4)”. The “Competitive receptor binding activity, CXCR4 H281A” value (CXCR4 H281A) was “++ (10–29% reduction compared with wild-type CXCR4)”, the “Competitive receptor binding activity, CXCR4 I259A” value (CXCR4 I259A) was “+++” and the “Competitive receptor binding activity, CXCR4 I284A” value (CXCR4 I284A) was “+++”. For the same substance, the “Competitive receptor binding activity, CXCR4 W94A” value (CXCR4 W94A) was “+ (30–60% reduction compared with wild-type CXCR4)”, the “Competitive receptor binding activity, CXCR4 N119A” value (CXCR4 N119A) was “+ (30–60% reduction compared with wild-type CXCR4)” and the “Competitive receptor binding activity, CXCR4 F87A” value (CXCR4 F87A) was “+ (30–60% reduction compared with wild-type CXCR4)”.
With “LGASWHRPDKCCLGYQKRPLPQVLLSSWYPTSQLCSKPGVIFLTKRGRQVCADKSKDWVKKLMQQLPVTAR [vMIP-II, viral macrophage-inflammatory protein-II, full-length natural chemokine antagonist produced by human herpesvirus-8; recombinant from Peprotech]” the “Competitive receptor binding activity, CXCR4 H203A” value (CXCR4 H203A) was “+++”, the “Competitive receptor binding activity, CXCR4 Y116A” value (CXCR4 Y116A) was “++ (10–29% reduction compared with wild-type CXCR4)” and the “Competitive receptor binding activity, CXCR4 W252A” value (CXCR4 W252A) was “+++”. The “Competitive receptor binding activity, CXCR4 D97A” value (CXCR4 D97A) was “++ (10–29% reduction compared with wild-type CXCR4)”, the “Competitive receptor binding activity, CXCR4 E288Q” value (CXCR4 E288Q) was “++ (10–29% reduction compared with wild-type CXCR4)” and the “Competitive receptor binding activity, CXCR4 D171A” value (CXCR4 D171A) was “+++”. For the same substance, the “Competitive receptor binding activity, CXCR4 H113A” value (CXCR4 H113A) was “+++”, the “Competitive receptor binding activity, CXCR4 T117A” value (CXCR4 T117A) was “+++” and the “Competitive receptor binding activity, CXCR4 D262N” value (CXCR4 D262N) was “+++”. The “Competitive receptor binding activity, CXCR4 Q200A” value (CXCR4 Q200A) was “+++”, the “Competitive receptor binding activity, CXCR4 E288A” value (CXCR4 E288A) was “+++” and the “Competitive receptor binding activity, CXCR4 E288D” value (CXCR4 E288D) was “+++”. For the same substance, the “Competitive receptor binding activity, CXCR4 H281A” value (CXCR4 H281A) was “+++”, the “Competitive receptor binding activity, CXCR4 I259A” value (CXCR4 I259A) was “+++” and the “Competitive receptor binding activity, CXCR4 I284A” value (CXCR4 I284A) was “+++”. The “Competitive receptor binding activity, CXCR4 W94A” value (CXCR4 W94A) was “+ (30–60% reduction compared with wild-type CXCR4)”, the “Competitive receptor binding activity, CXCR4 N119A” value (CXCR4 N119A) was “++ (10–29% reduction compared with wild-type CXCR4)” and the “Competitive receptor binding activity, CXCR4 F87A” value (CXCR4 F87A) was “+ (30–60% reduction compared with wild-type CXCR4)”. For the same substance, the IC50 (CXCR4) was 5.8 nM.
